Row | melting point [°C] | Structure (SMILES)
1 | 207 to 210 | C=CCc1cn2c(=O)c(C(=O)O)cnc2c2cc(OC)ccc12
2 | 188 to 189 | COC(=O)c1cc(Cl)c(N=C2NCCN2C(C)=O)c(Cl)c1
3 | 169 to 170 | COc1ccc(CC2CCN(CCS(=O)c3ccc4[nH]c(=O)oc4c3)CC2)cc1 (stereo not drawn)
4 | 63 to 68 | C=Cc1ccc(CSCCOC(=O)COCC(=O)O)cc1
5 | 257 to 259 | c1ccc2c(N3CCN(CCc4ccc(-c5csnn5)cc4)CC3)nsc2c1
6 | 184 to 186 | COC(=O)c1cccc(NC(=O)Oc2ccc([N+](=O)[O-])cc2)c1
7 | 168 to 172 | CN(C)N=Nc1cscc1C(N)=O
8 | 226 to 228 | Nc1c(NCCCOc2cc(CN3CCCCC3)ccn2)c(=O)c1=O
9 | 146 to 150 | COc1ccc2c(c1)CC[C@@H](O)[C@@H]2n1nc(-c2c(-c3ccccc3)nn3ccccc23)ccc1=O (relative stereo)
10 | 189 to 190 | CN(C(=O)c1ccc(Cn2ccc3ncnc-3c2)o1)C1CCCCC1
11 | 110 to 120 | NC(=O)CC(=S)N1CCCC1
12 | 149 to 151 | c1ccc(CN(c2ccccc2)c2ccc(N(Cc3ccccc3)c3ccccc3)cc2)cc1
13 | 150 to 152 | Nc1cc(C(=O)NCC(=O)O)ccc1F
14 | 73 to 74 | Cc1c(OCC(F)(F)F)ccnc1CS(=O)c1nc2cc(N3CCN(C)CC3)c(F)cc2[nH]1 (stereo not drawn)
15 | 152 to 155 | C/C(=C(\C#N)C(N)=S)N1CCCN(c2ccc(Br)cc2)CC1
16 | 133 | COC(=O)c1cc(OC)c(OC)cc1C1=NCCc2ccccc21
17 | 97 to 102 | C1=C2CCC=C2CCCCCCCCC1
18 | 187 to 189 | COCCOc1cc2c(cc1C#Cc1ccccc1)NC(=O)CC(c1cccc(-n3ccnc3)c1)=N2
19 | 170 | COc1cccc(Oc2c(NS(=O)(=O)c3ccc(C(C)(C)C)cc3)ncnc2OCCOc2cccnn2)c1
20 | 122 to 124 | COc1ccc(Br)c(O)c1O
21 | 322 | CCCn1c(=O)[nH]c2ccc(C(=O)c3nc(Br)c4ccccn34)cc2c1=O
22 | 72.5 to 73.9 | CCCCCC(=O)NN
23 | 158 to 159 | O=c1ccn2c3ccccc3c3cc(Cl)cc1c32
24 | 139 to 141 | CC(C)(C)C(O)(C=Cc1ccc(Cl)cc1)n1cncn1 (stereo not drawn)
25 | 50 | O=C(CNc1ccccc1)OC1CCCCC1
26 | 183 to 185 | CCOC(=O)COc1ccc2c(=O)c3ccccc3oc2c1Cl

Row | melting point [°C] | Structure (SMILES)
27 | 176 | CN1COc2c(N3CC4CCOC4(CNC(=O)OC(C)(C)C)C3)c(F)cc3c(=O)c(C(=O)O)cn1c23 (stereo not drawn)
28 | 108 to 109 | CCn1nc(Cc2ccc([N+](=O)[O-])cc2)oc1=O
29 | 248 to 250 | Cc1ccc2[nH]c(C)c(C(=O)c3ccc(Cl)c(S(N)(=O)=O)c3)c2c1
30 | > 325 | O=C1CC(c2ccc(Cl)c(Cl)c2)Cc2[nH]c3ccc(Cl)cc3c(=O)c21 (stereo not drawn)
31 | 147 to 148 | Cc1ccc(CSc2nc3cc4c(cc3[nH]2)OC(C)O4)nc1
32 | 95 to 99 | COC(=O)CCn1nc2ccccn2c1=O
33 | 153 to 154 | Cc1nnc(-c2ccc3ncn(-c4cccc(OC(F)(F)F)c4)c3c2)o1
34 | 21.8 | C=CCCCc1cnc(-c2ccc(F)cc2)nc1
35 | 175 to 179 | CCCc1nc(C=NNC(=S)SC)c(C)[nH]1
36 | 128 | NS(=O)(=O)Oc1ccc2c(C3CCCCC3)csc2c1
37 | 287 to 289 | COc1ccc(-c2n[nH]c(-c3cccc(C(=O)O)c3)n2)cc1
38 | 111 to 115 | CN(CCNC(=O)NCCCOc1cccc(CN2CCCCC2)c1)CCC(c1ccc(F)cc1)c1ccccn1 (stereo not drawn)
39 | 210 | C#CCOc1cc(OCC=C)ccc1-c1nc2ncccc2[nH]1
40 | 167 to 168 | CC1CC1n1cc(C(=O)O)c(=O)c2cc(F)c(F)c(F)c21 (stereo not drawn)
41 | 123 to 138 | Cc1nc(Cl)c(C(=O)O)cc1Cl
42 | 46 to 48 | c1ccc(-c2cnns2)cc1
43 | 118 to 120 | CCOC(=O)C1=C(COCc2nnc(C)o2)NC(C)=C(C(=O)OC)C1c1cccc(Cl)c1Cl (stereo not drawn)
44 | 219 | COc1ccc(-c2ccnc(-c3cn(C)c(=O)n3-c3ccc(C(C)(C)C#N)cc3)c2)cc1
45 | 89 to 90 | CCc1c(Sc2cc(Cl)cc(Cl)c2)c(CO)nn1CCO
46 | 63 to 66 | CC(CO)c1ccc2c(=O)c3ccccc3ccc2c1 (stereo not drawn)
47 | 88 to 90 | CC(C(=O)c1ccncc1)c1ccc(C2=CCCCC2)cc1 (stereo not drawn)
48 | 200 to 202 | CN1CCCc2ccc(NC(=O)/C=C/c3ccc(C(C)(C)C)cc3)cc21
49 | 67 to 69 | CC(CCCO)C(c1cc(F)ccc1F)S(=O)(=O)c1ccc(Cl)cc1 (stereo not drawn)
50 | 198 to 200 | COc1ccc([C@H]2Cc3c(cccc3[N+](=O)[O-])NC(=O)[C@H]2O)cc1 (relative stereo)
51 | 97 to 99 | CCCc1c(OCCCC(=O)NC(C)CCCc2cccnc2)ccc(C(C)=O)c1O (stereo not drawn)
52 | 90 to 95 | CCOC(=O)c1ccc(N2C(=O)CCC2CO)c([N+](=O)[O-])c1 (stereo not drawn)

Row | melting point [°C] | Structure (SMILES)
53 | 141 to 145 | Cn1c(C(F)(F)F)cc(=O)n(-c2c(F)cc(Cl)c3c2OCCC3)c1=O
54 | 51 to 53 | CCOC(=O)CC(=O)c1cc(F)c(Br)cc1F
55 | 258 to 259 | Cc1cc(-c2c(F)cc3c(=O)c(Cc4ccc(O)cc4)cn(C4CC4)c3c2F)cc(C)n1
56 | 149 to 150 | CCCCOc1c(CNC(=O)OC(C)(C)C)n(CC(C)(C)C)c(=O)c2ccc(C=O)cc12
57 | 86 to 88 | C=CC(=O)N(CCCCCC)C[C@H](O)[C@@H](O)[C@H](O)[C@H](O)CO
58 | 115 to 118 | COc1ccc(C(=C/C=C/C(=O)NCCCc2cccc3ccncc23)c2ccc(OC)cc2)cc1
59 | 118 to 121 | COc1ccc(CNC(=O)c2cc3c(=O)n(CCS(=O)(=O)c4ccccc4)c(=O)n(C)c3s2)cc1
60 | 218 | COc1c(S(N)(=O)=O)cccc1S(=O)(=O)NC(=O)Nc1nc(C)cc(C)n1
61 | 128 to 129 | CC(C)(C)c1cc(O)cc(C(C)(C)C)c1Sc1nnc(-c2ccccn2)o1
62 | 114 to 116 | CCc1cc(C=O)c(O)c(S(C)(=O)=O)c1
63 | 195 to 196 | COc1cc(/C=C(\C)C(=O)O)c2cccc(C(C)C)c2c1O
64 | 255 to 257 | CC(C)(C)c1cccc(Br)c1Oc1ccc(O)nn1
65 | 124 | CCC1SC(=O)N(Cc2ccc(NC(=O)C(F)(F)F)cc2)N=C1c1ccc(OC)c(OC)c1 (stereo not drawn)
66 | 228 to 231 | CC1=C(C)C(O)N(c2nc3ccc(OC(F)(F)F)cc3s2)C1=O (stereo not drawn)
67 | 166 to 167 | CCOC(=O)C(C)(C)OC(=O)c1cc(-n2c(=O)cc(CC)[nH]c2=O)c(F)cc1Cl
68 | 183 to 186 | COc1ccc(N2CCN(c3c(C)c4c(c(C(C)O)c3C)OC(C)(C)C4)CC2)cc1 (stereo not drawn)
69 | 126 to 129 | Cc1cccc2ncc(C(=O)NC(C)(C)CC(C)(C)C)c(=O)n12
70 | 135 to 137 | CC(C)(C)OC(=O)C=Cc1ccc(C[C@H](NC(=O)OC(C)(C)C)C(=O)OC(c2ccccc2)c2ccccc2)cc1
71 | 30 | CCCCCCc1cnc(-c2ccc(CCCCC)c(F)c2)nc1
72 | 92 to 94 | COC(=O)c1cc([N+](=O)[O-])c(Cl)c(S(=O)(=O)Cl)c1
73 | 215 to 217 | CC(NS(=O)(=O)N1CCOCC1)P(=O)(c1ccccc1)c1ccccc1 (stereo not drawn)
74 | 149 to 150 | CC(=O)c1c(-c2ccc(Cl)cc2)c(-c2ccc(Cl)cc2)nn(CCN(C)C)c1=O
75 | > 350 | Nc1nc2nc(-c3ccccc3)[nH]c2c2ncnn12
76 | 95 to 97 | Cc1cc(Cl)n(-c2ccc(Cl)cc2F)n1
77 | 120 to 122 | O=C(O)CCCCCCc1cn(-c2cccnc2)c2ccccc12
78 | > 260 | Nc1nc(N)nc(-c2ccc(S(=O)(=O)N3CCCCC3)cc2)n1

Row | melting point [°C] | Structure (SMILES)
79 | 108 | CON=C(c1ccc(OC(C)(C)C(=O)O)c(C)c1)c1cccs1
80 | 226 | COc1ccc(-c2c(C)[nH]c(=S)n2Nc2cccc(Cl)c2)cc1
81 | > 260 | Cc1c[nH]c(=O)c2c3c([nH]c12)CCC(=O)C3
82 | 67 to 68 | CCOC(=O)c1cc(OC)c2oc(C)c(C)c2c1
83 | 222 | COc1c(C2CCN(CCCCNC(=O)c3[nH]nc(-c4ccc(C#N)cc4)c3C)CC2)ccc2c1CCCC2
84 | 66 to 68 | Cn1nc([N+](=O)[O-])cc1CO
85 | 124 to 126 | CC1(C)N=C(Cl)c2cc(C#N)ccc2O1
86 | 150 to 152 | O=C(CN1CCNCC1C(=O)CCCCCNO)Nc1nc2ccccc2s1 (stereo not drawn)
87 | 220 to 221 | CN(C)c1cccc(-c2nc3c(N[C@H]4[C@@H](C(N)=O)[C@@H]5C=C[C@H]4C5)c(Br)cnc3[nH]2)c1
88 | 179 | CCc1c(Cl)c2ccccn2c1C(=O)c1ccc(O)cc1
89 | 103 to 104 | CCN1c2ccccc2Sc2ccccc21
90 | 98 to 110 | COc1ccc2[nH]c(C(=O)Nc3cc(NC(=O)OCc4ccccc4)c4ccccc4c3CCOC(C)=O)cc2c1
91 | 159 to 160 | O=C(O)COc1ccc(CCCS(=O)(=O)c2ccc(Cl)cc2)cc1
92 | 138 | CN1CCCCC1CCc1ccccc1NC(=O)c1ccc(Br)cc1 (stereo not drawn)
93 | 302 to 304 | O=C(O)c1ccc2c(c1)Sc1ccc(Cl)cc1C=C2
94 | 302 to 304 | COc1ccc2c(ccn3c(=O)c(C(=O)O)cnc23)c1
95 | > 210 | COc1ccc(Oc2nc(Oc3ccc(OC)c(F)c3)nc(Oc3ccc(OC)c(F)c3)n2)cc1F
96 | 185 to 186 | CC(C)(C)c1ccc(C(=O)Nc2ccc3oc4c(c3c2)CCCC4)cc1
97 | 61 | CCCC1COC(c2cc(F)c(C(F)(F)Oc3ccc(-c4cc(F)c(OC(F)(F)F)c(F)c4)c(F)c3)c(F)c2)OC1 (stereo not drawn)
98 | 54 | CCOCc1cc2c([N+](=O)[O-])cccc2cn1
99 | 92 to 93.5 | O=C1CCC(c2ccc3c(c2)OCO3)CC1
100 | 144 to 147 | CCC(c1ccccc1)(c1ccccc1)c1ccnc(C(N)=O)c1
101 | > 300 | Nc1nc2c(nc(Br)n2Cc2ccc(Cl)cc2)c(=O)[nH]1

Row | Structure (SMILES) | melting point [°C]
102 | O=C(O)c1cc(CCl)ccc1O | 144 to 147
103 | CCOC(=O)NNC(=O)Cl | 77 to 80

From a melting point compilation (Tetko et al.; mined from patent text by program, amines drawn as free bases though some values may be those of a salt)
